Test results: ChEMBL document CHEMBL1201862, “PubChem BioAssay data set” (2004)
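Cells were grown in 96-well plates and exposed to each compound for 48 hours at five concentrations; endpoints were interpolated linearly between bracketing concentrations, or set to the highest concentration if not reached. GI50 is the concentration that inhibits growth by half.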 Activity calls are given as the source filed them. No stated cut-off is given here; in the data, active = GI50 up to about 1.1 µM and inactive = higher.

Key:
Test in all cases: DTP human tumour cell line panel, 48 h
[1] = test system: 786-0
[2] = test system: A498
[3] = test system: A549
[4] = test system: ACHN
[5] = test system: BT-549
[6] = test system: CAKI-1
[7] = test system: CCRF-CEM
[8] = test system: COLO 205
[9] = test system: DU-145
[10] = test system: EKVX
[11] = test system: HCC 2998
[12] = test system: HCT-15
[13] = test system: HL-60
[14] = test system: HOP-62
[15] = test system: HOP-92
[16] = test system: HT-29
[17] = test system: Hs-578T
[18] = test system: IGROV-1
[19] = test system: K562
[20] = test system: KM12
[21] = test system: LOX IMVI
[22] = test system: M14
[23] = test system: MCF7
[24] = test system: MDA-MB-231
[25] = test system: MDA-MB-435
[26] = test system: MDA-N
[27] = test system: MOLT-4
[28] = test system: Malme-3M
[29] = test system: NCI-H226
[30] = test system: NCI-H23
[31] = test system: NCI-H460
[32] = test system: NCI-H522
[33] = test system: NCI/ADR-RES
[34] = test system: OVCAR-3
[35] = test system: OVCAR-4
[36] = test system: OVCAR-5
[37] = test system: OVCAR-8
[38] = test system: PC-3
[39] = test system: RPMI-8226
[40] = test system: RXF 393
[41] = test system: SF-268
[42] = test system: SF-295
[43] = test system: SF-539
[44] = test system: SK-MEL-28
[45] = test system: SK-MEL-5
[46] = test system: SN12C
[47] = test system: SNB-19
[48] = test system: SNB-75
[49] = test system: SR
[50] = test system: SW-620
[51] = test system: T47D
[52] = test system: TK-10
[53] = test system: U-251
[54] = test system: UACC-257
[55] = test system: UACC-62
[56] = test system: UO-31
[57] = test system: HCT-116
[58] = test system: SK-MEL-2
[59] = test system: SK-OV-3

Cc1c(-c2ccccc2)cc(O)c2nc3ccccc3n12
GI50 [1]: 29 µM (inactive)
GI50 [2]: > 100 µM (inactive)
GI50 [3]: 14.5 µM (inactive)
GI50 [4]: 21.6 µM (inactive)
GI50 [5]: 12.6 µM (inactive)
GI50 [6]: 74.1 µM (inactive)
GI50 [7]: 17 µM (inactive)
GI50 [8]: > 100 µM (inactive)
GI50 [9]: > 100 µM (inactive)
GI50 [10]: > 100 µM (inactive)
GI50 [11]: 17.8 µM (inactive)
GI50 [12]: 6.32 µM
GI50 [13]: 4.97 µM (inactive)
GI50 [14]: 21.1 µM (inactive)
GI50 [15]: 10.2 µM (inactive)
GI50 [16]: > 100 µM (inactive)
GI50 [17]: 55.1 µM (inactive)
GI50 [18]: 39.5 µM (inactive)
GI50 [19]: 5.82 µM (inactive)
GI50 [20]: 15.6 µM (inactive)
GI50 [21]: 4.99 µM (inactive)
GI50 [22]: > 100 µM (inactive)
GI50 [23]: 57.9 µM (inactive)
GI50 [24]: 5.61 µM (inactive)
GI50 [25]: 13.7 µM (inactive)
GI50 [26]: 46.8 µM (inactive)
GI50 [27]: 8.28 µM (inactive)
GI50 [28]: > 100 µM (inactive)
GI50 [29]: > 100 µM (inactive)
GI50 [30]: > 100 µM (inactive)
GI50 [31]: 6.31 µM (inactive)
GI50 [32]: 20.4 µM (inactive)
GI50 [33]: 7 µM (inactive)
GI50 [34]: > 100 µM (inactive)
GI50 [35]: 9.68 µM (inactive)
GI50 [36]: > 100 µM (inactive)
GI50 [37]: > 100 µM (inactive)
GI50 [38]: 31.7 µM (inactive)
GI50 [39]: 7.43 µM (inactive)
GI50 [40]: 83.6 µM (inactive)
GI50 [41]: > 10 µM (inactive)
GI50 [42]: 49.8 µM (inactive)
GI50 [43]: > 100 µM (inactive)
GI50 [44]: > 100 µM (inactive)
GI50 [45]: 44 µM (inactive)
GI50 [46]: > 100 µM (inactive)
GI50 [47]: 96.8 µM (inactive)
GI50 [48]: 7.4 µM (inactive)
GI50 [49]: 7.06 µM (inactive)
GI50 [50]: 20.7 µM (inactive)
GI50 [51]: > 100 µM (inactive)
GI50 [52]: > 100 µM (inactive)
GI50 [53]: 6.75 µM (inactive)
GI50 [54]: > 100 µM (inactive)
GI50 [55]: 11 µM (inactive)
GI50 [56]: 9.25 µM (inactive)

c1ccc(/N=C2\SC3=NCCN3\C2=N/c2ccccc2)cc1
GI50 [2]: 19.8 µM (inactive)
GI50 [5]: 15.2 µM (inactive)
GI50 [6]: 17.9 µM (inactive)
GI50 [7]: 2.68 µM (inactive)
GI50 [8]: 15.5 µM (inactive)
GI50 [9]: 13.2 µM (inactive)
GI50 [11]: 18.7 µM (inactive)
GI50 [57]: 13.6 µM (inactive)
GI50 [12]: 10 µM
GI50 [14]: 18.7 µM (inactive)
GI50 [15]: 27.1 µM (inactive)
GI50 [16]: 16.4 µM (inactive)
GI50 [17]: 36.9 µM (inactive)
GI50 [18]: > 10 µM (inactive)
GI50 [19]: 4.24 µM (inactive)
GI50 [20]: 15.9 µM (inactive)
GI50 [22]: 17.5 µM (inactive)
GI50 [23]: 10.7 µM (inactive)
GI50 [24]: 22.9 µM (inactive)
GI50 [25]: 15.6 µM (inactive)
GI50 [26]: 15.7 µM (inactive)
GI50 [27]: 3.47 µM (inactive)
GI50 [28]: > 10 µM (inactive)
GI50 [29]: 20.6 µM (inactive)
GI50 [30]: 20.1 µM (inactive)
GI50 [31]: 20.7 µM (inactive)
GI50 [32]: 13.6 µM (inactive)
GI50 [33]: 28 µM (inactive)
GI50 [34]: 18.1 µM (inactive)
GI50 [36]: 20.1 µM (inactive)
GI50 [37]: 25.9 µM (inactive)
GI50 [38]: 13.1 µM (inactive)
GI50 [39]: 16.3 µM (inactive)
GI50 [40]: 15.2 µM (inactive)
GI50 [42]: 17.5 µM (inactive)
GI50 [44]: 17 µM (inactive)
GI50 [58]: 19.9 µM (inactive)
GI50 [45]: 15.5 µM (inactive)
GI50 [59]: 34 µM (inactive)
GI50 [46]: 22.8 µM (inactive)
GI50 [47]: 17.1 µM (inactive)
GI50 [48]: 18 µM (inactive)
GI50 [49]: 21.4 µM (inactive)
GI50 [51]: 9.12 µM (inactive)
GI50 [53]: 17.7 µM (inactive)
GI50 [55]: 7.38 µM (inactive)
GI50 [56]: 13.5 µM (inactive)

Nc1nc(O)c2ncn(C3C=CC(CO)C3)c2n1 (stereo not drawn)
GI50 [1]: > 100 µM (inactive)
GI50 [2]: > 100 µM (inactive)
GI50 [3]: > 100 µM (inactive)
GI50 [4]: > 100 µM (inactive)
GI50 [5]: > 100 µM (inactive)
GI50 [6]: > 100 µM (inactive)
GI50 [8]: > 100 µM (inactive)
GI50 [9]: > 100 µM (inactive)
GI50 [10]: > 100 µM (inactive)
GI50 [11]: > 100 µM (inactive)
GI50 [57]: > 100 µM (inactive)
GI50 [12]: > 100 µM
GI50 [14]: > 100 µM (inactive)
GI50 [15]: > 100 µM (inactive)
GI50 [16]: > 100 µM (inactive)
GI50 [17]: > 100 µM (inactive)
GI50 [18]: > 100 µM (inactive)
GI50 [19]: > 100 µM (inactive)
GI50 [20]: > 100 µM (inactive)
GI50 [22]: > 100 µM (inactive)
GI50 [23]: > 100 µM (inactive)
GI50 [24]: > 100 µM (inactive)
GI50 [25]: > 100 µM (inactive)
GI50 [26]: > 100 µM (inactive)
GI50 [28]: > 100 µM (inactive)
GI50 [29]: > 100 µM (inactive)
GI50 [30]: > 100 µM (inactive)
GI50 [31]: > 100 µM (inactive)
GI50 [32]: > 100 µM (inactive)
GI50 [33]: > 100 µM (inactive)
GI50 [34]: > 100 µM (inactive)
GI50 [35]: > 100 µM (inactive)
GI50 [36]: > 100 µM (inactive)
GI50 [37]: > 100 µM (inactive)
GI50 [38]: > 100 µM (inactive)
GI50 [39]: > 100 µM (inactive)
GI50 [40]: > 100 µM (inactive)
GI50 [41]: > 100 µM (inactive)
GI50 [42]: > 100 µM (inactive)
GI50 [43]: > 100 µM (inactive)
GI50 [44]: > 100 µM (inactive)
GI50 [58]: > 100 µM (inactive)
GI50 [45]: > 100 µM (inactive)
GI50 [59]: > 100 µM (inactive)
GI50 [46]: > 100 µM (inactive)
GI50 [47]: > 100 µM (inactive)
GI50 [48]: > 100 µM (inactive)
GI50 [49]: > 100 µM (inactive)
GI50 [50]: > 100 µM (inactive)
GI50 [51]: > 100 µM (inactive)
GI50 [52]: > 100 µM (inactive)
GI50 [53]: > 100 µM (inactive)
GI50 [54]: > 100 µM (inactive)
GI50 [55]: > 100 µM (inactive)
GI50 [56]: > 100 µM (inactive)
